Assay results taken from patent publication US20250214983A1, “1,3,4-OXADIAZOLE TRIAZOLE COMPOUNDS AS HISTONE DEACETYLASE 6 INHIBITOR, AND PHARMACEUTICAL COMPOSITION COMPRISING THE SAME” (Chong Kun Dang Pharmaceutical Corp., priority 2022, published 2025).

Columns and labels:
human recombinant HDAC1 = target: T1, human recombinant HDAC1 (Homo sapiens, UniProt Q13547); assay: HDAC1 enzyme activity inhibition (HDAC Fluorimetric Drug Discovery Kit); type: biochemical; conditions: human recombinant HDAC1, Fluor de Lys substrate 10 μM, 30° C. 60 minutes
T1 construct: purchased Enzo Life Science, Inc. BML-SE456
Protocol: (§1) An experiment was conducted to identify the selectivity of the 1,3,4-oxadiazole triazole compound of the present invention to HDAC6 through an experiment on HDAC1 and HDAC6 enzyme activity inhibition.
(§2) The HDAC enzyme activity was measured with HDAC Fluorimetric Drug Discovery Kit (BML-AK511, 516) of Enzo Life Science, Inc. For the test on the HDAC1 enzyme activity, human recombinant HDAC1 (BML-SE456) was used as an enzyme source and Fluor de Lys®-“SIRT1 (BNL-KI177)” was used as a substrate. A 5-fold dilution of the compound was divided into a 96-well plate, after which 0.3 μg of the enzyme and 10 μM of the substrate were inserted into each well and subjected to reaction at 30° C. for 60 minutes, such that Fluor de Lys® Developer II (BML-KI176) was inserted thereinto and subjected to reaction for 30 minutes and finished. After that, a fluorescence value (Ex 360, Em 460) was measured with a multi-plate reader (Flexstation 3, Molecular Device). An experiment on HDAC6 enzyme was conducted in accordance with the same protocol as in the HDAC1 enzyme activity test method by using human recombinant HDAC6 (382180) of Calbiochem Inc. For final result values, each IC50 value was calculated with GraphPad Prism 4.0 program.

human recombinant HDAC6 = target: T2, human recombinant HDAC6 (Homo sapiens, UniProt Q9UBN7); assay: HDAC6 enzyme activity inhibition (HDAC Fluorimetric Drug Discovery Kit); type: biochemical; conditions: HDAC1 versus HDAC6
T2 construct: purchased Calbiochem Inc. 382180
T2 sequence (Q9UBN7 1-1215): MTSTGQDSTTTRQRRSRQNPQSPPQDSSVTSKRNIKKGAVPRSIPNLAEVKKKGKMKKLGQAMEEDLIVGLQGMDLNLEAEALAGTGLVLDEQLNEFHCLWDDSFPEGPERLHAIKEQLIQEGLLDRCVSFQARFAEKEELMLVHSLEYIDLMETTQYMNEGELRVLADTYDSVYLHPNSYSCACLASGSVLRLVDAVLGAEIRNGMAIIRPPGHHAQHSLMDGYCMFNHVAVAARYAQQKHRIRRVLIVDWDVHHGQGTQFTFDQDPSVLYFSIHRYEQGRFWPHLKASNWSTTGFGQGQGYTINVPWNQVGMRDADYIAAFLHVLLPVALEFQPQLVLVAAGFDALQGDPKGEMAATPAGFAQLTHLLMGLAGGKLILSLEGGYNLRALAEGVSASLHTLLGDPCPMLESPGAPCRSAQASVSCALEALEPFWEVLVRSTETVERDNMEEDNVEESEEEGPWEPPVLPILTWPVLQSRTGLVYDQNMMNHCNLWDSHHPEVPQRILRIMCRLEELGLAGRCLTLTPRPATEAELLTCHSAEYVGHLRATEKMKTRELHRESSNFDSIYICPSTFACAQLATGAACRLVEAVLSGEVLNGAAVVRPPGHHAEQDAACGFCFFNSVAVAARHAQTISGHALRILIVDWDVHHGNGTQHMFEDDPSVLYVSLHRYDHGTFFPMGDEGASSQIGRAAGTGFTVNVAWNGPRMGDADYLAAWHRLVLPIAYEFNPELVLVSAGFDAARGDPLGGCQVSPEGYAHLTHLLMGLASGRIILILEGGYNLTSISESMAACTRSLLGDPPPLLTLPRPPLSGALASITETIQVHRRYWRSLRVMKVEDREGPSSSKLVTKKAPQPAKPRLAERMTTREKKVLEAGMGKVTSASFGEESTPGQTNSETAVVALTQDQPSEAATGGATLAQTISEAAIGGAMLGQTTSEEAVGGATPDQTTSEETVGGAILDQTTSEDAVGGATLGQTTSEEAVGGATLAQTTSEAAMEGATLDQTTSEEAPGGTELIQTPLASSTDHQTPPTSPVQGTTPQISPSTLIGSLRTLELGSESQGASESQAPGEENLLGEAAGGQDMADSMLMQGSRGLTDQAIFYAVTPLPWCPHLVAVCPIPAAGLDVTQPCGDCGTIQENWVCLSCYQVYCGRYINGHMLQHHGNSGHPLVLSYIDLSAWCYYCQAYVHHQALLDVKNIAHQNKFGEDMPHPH
Protocol: as §1, §2

T1 sequence (Q13547 whole entry): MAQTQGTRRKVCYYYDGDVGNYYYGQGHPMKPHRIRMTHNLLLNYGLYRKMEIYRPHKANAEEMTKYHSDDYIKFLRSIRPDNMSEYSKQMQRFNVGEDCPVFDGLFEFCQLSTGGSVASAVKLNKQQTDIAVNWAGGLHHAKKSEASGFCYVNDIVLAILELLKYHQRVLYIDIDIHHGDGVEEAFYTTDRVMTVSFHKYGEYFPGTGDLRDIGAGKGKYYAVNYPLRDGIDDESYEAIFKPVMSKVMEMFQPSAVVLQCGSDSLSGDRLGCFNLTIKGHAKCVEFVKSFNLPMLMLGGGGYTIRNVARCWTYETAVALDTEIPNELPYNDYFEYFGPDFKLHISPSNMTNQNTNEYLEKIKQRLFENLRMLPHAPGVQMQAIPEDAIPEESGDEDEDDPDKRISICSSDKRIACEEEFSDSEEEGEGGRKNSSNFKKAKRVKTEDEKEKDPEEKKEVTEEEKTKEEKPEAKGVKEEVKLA

Structure (SMILES) | IC50 (human recombinant HDAC1) [µM] | HDAC6 selectivity (fold) (human recombinant HDAC6)
CN(C)Cc1cc(-c2cn(Cc3ccc(-c4nnc(C(F)F)o4)cn3)nn2)cs1 [Compound 11, 1-(4-(1-((5-(5-(difluoromethyl)-1,3,4-oxadiazol-2-yl)pyridin-2-yl)methyl)-1H-1,2,3-triazol-4-yl)thiophen-2-yl)-N,N-dimethylmethanamine] | > 50 | 1577
FC(F)c1nnc(-c2ccc(Cn3cc(-c4csc(CN5CC[C@@H](F)C5)c4)nn3)nc2)o1 [Compound 14, (R)-2-(difluoromethyl)-5-(6-((4-(5-((3-fluoropyrrolidin-1-yl)methyl)thiophen-3-yl)-1H-1,2,3-triazol-1-yl)methyl)pyridin-3-yl)-1,3,4-oxadiazole] | > 50 | 1811
CN(C)Cc1ccc(F)c(-c2cn(Cc3ccc(-c4nnc(C(F)F)o4)cn3)nn2)c1 [Compound 20, 1-(3-(1-((5-(5-(difluoromethyl)-1,3,4-oxadiazol-2-yl)pyridin-2-yl)methyl)-1H-1,2,3-triazol-4-yl)-4-fluorophenyl)-N,N-dimethylmethanamine] | > 50 | 1798
Fc1cc(CN2CCC2)cc(-c2cn(Cc3ccc(-c4nnc(C(F)F)o4)cn3)nn2)c1 [Compound 38, 2-(6-((4-(3-(azetidin-1-ylmethyl)-5-fluorophenyl)-1H-1,2,3-triazol-1-yl)methyl)pyridin-3-yl)-5-(difluoromethyl)-1,3,4-oxadiazole] | > 50 | 2777
CN(C)Cc1cc(Cl)cc(-c2cn(Cc3ccc(-c4nnc(C(F)F)o4)cn3)nn2)c1 [Compound 31, 1-(3-chloro-5-(1-((5-(5-(difluoromethyl)-1,3,4-oxadiazol-2-yl)pyridin-2-yl)methyl)-1H-1,2,3-triazol-4-yl)phenyl)-N,N-dimethylmethanamine] | > 50 | 1424
FC(F)c1nnc(-c2ccc(Cn3cc(-c4csc(CN5CC[C@H](F)C5)c4)nn3)nc2)o1 [Compound 13, (S)-2-(difluoromethyl)-5-(6-((4-(5-((3-fluoropyrrolidin-1-yl)methyl)thiophen-3-yl)-1H-1,2,3-triazol-1-yl)methyl)pyridin-3-yl)-1,3,4-oxadiazole] | > 50 | 1893
Fc1ccc(CN2CCCCC2)cc1-c1cn(Cc2ccc(-c3nnc(C(F)F)o3)cn2)nn1 [Compound 18, 2-(difluoromethyl)-5-(6-((4-(2-fluoro-5-(piperidin-1-ylmethyl)phenyl)-1H-1,2,3-triazol-1-yl)methyl)pyridin-3-yl)-1,3,4-oxadiazole] | > 50 | 1845
FC(F)c1nnc(-c2ccc(Cn3cc(-c4ccc(CN5CCCC5)cn4)nn3)nc2)o1 [Compound 3, 2-(difluoromethyl)-5-(6-((4-(5-(pyrrolidin-1-ylmethyl)pyridin-2-yl)-1H-1,2,3-triazol-1-yl)methyl)pyridin-3-yl)-1,3,4-oxadiazole] | > 50 | 1712
FC(F)c1nnc(-c2ccc(Cn3cc(-c4cccc(CN5CCC5)c4Cl)nn3)nc2)o1 [Compound 35, 2-(6-((4-(3-(azetidin-1-ylmethyl)-2-chlorophenyl)-1H-1,2,3-triazol-1-yl)methyl)pyridin-3-yl)-5-(difluoromethyl)-1,3,4-oxadiazole] | > 50 | 1146
FC(F)c1nnc(-c2ccc(Cn3cc(-c4ccc(CN5CC[C@@H](F)C5)s4)nn3)nc2)o1 [Compound 8, (R)-2-(difluoromethyl)-5-(6-((4-(5-((3-fluoropyrrolidin-1-yl)methyl)thiophen-2-yl)-1H-1,2,3-triazol-1-yl)methyl)pyridin-3-yl)-1,3,4-oxadiazole] | > 50 | 1048
FC(F)c1nnc(-c2ccc(Cn3cc(-c4ccc(CN5CCC5)cn4)nn3)nc2)o1 [Compound 2, 2-(6-((4-(5-(azetidin-1-ylmethyl)pyridin-2-yl)-1H-1,2,3-triazol-1-yl)methyl)pyridin-3-yl)-5-(difluoromethyl)-1,3,4-oxadiazole] | > 50 | 2252
